Values quoted from earlier work as cited in publication PMC9231011, “Irreversible Antagonists for the Adenosine A2B Receptor” (Molecules, 2022).

Experiments:
human A1AR = target: T1, human A1AR (Homo sapiens, UniProt P30542); design: method as in PMID 19569717; details: read-out: A1AR vs. Radioligand [3H]CCPA Ki; cited from earlier work
T1 construct: purchased Perkin Elmer ES-010-M400UA
T1 sequence (P30542 1-326): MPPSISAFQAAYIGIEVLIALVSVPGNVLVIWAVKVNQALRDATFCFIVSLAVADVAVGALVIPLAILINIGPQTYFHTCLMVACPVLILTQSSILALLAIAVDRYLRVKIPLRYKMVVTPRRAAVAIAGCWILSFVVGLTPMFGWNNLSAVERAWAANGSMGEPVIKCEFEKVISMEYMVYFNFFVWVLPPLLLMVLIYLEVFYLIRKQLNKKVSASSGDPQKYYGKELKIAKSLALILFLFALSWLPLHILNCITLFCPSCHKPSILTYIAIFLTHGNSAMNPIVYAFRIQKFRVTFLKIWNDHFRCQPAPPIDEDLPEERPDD

hA1 = target: hA1; design: method as in PMID 30835463, PMID 31646479; details: Figure 1; cited from earlier work
hA3 = target: hA3; design: method as in PMID 30835463, PMID 31646479; details: Figure 1; cited from earlier work
hA2A = target: hA2A; design: method as in PMID 30835463, PMID 31646479; details: Figure 1; cited from earlier work

SMILES: CCCn1c(=O)[nH]c2nc(-c3ccc(S(=O)(=O)O)cc3)[nH]c2c1=O [PSB-1115, 1-propyl-8-(p-sulfophenyl)xanthine, reference compound]
- Ki (human A1AR): > 10 µM
- Ki (hA1): > 10 µM
- Ki (hA3): > 10 µM
- Ki (hA2A): 3.79 µM
